In one test the test system is SKBR3 cells. The test is described as follows: SKBR3 Cell Viability Assay (CellTiter Glo). Format: cell-based. The conditions noted are these: CellTiter Glo luminescence, read-out: MCL-1 CV SKBR3 EC50. An outline of the steps: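 Viability read as CellTiter Glo luminescence after 72 h of compound exposure at 37° C./5% CO2, using 6,000 SKBR3 cells per well in McCoy 5A with 10% FBS. Percent inhibition scaled between DMSO wells and 10 μM puromycin wells.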
On the technique in general: ATP-based viability assays read luminescence as a measure of living cells.

The target of test [1] is MCL-1/Bim interaction (recombinant human MCL-1 protein, residues 171-327; biotinylated human Bim peptide, residues 51-76) (Homo sapiens (Human), UniProt Q07820). The test is described as follows: MCL-1/Bim Binding AlphaLISA Assay. The following applies: 0.0625 nM 6xHis-Mcl-1 (171-327), 0.0625 nM biotinylated-Bim peptide. In outline:
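Protein 0.0625 nM + cpd, 1 h; add biotin-Bim 0.0625 nM, 2 h; acceptor beads 1 h; donor beads 1 h; AlphaScreen read. Buffer 20 mM Hepes pH 7.5, 150 mM NaCl, 1 mM DTT.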

Drawing on patent US10703733B2, “MCL-1 inhibitors” (Gilead Sciences, Inc., priority 2018, dated 2020), this text covers EC50 and IC50 for 33 compounds.

Each structure is given as a SMILES string. Read-outs that look alike come from different tables or passages of the source.

MCL-1/Bim interaction (recombinant human MCL-1 protein, residues 171-327; biotinylated human Bim peptide, residues 51-76), sequence (Q07820 171-327): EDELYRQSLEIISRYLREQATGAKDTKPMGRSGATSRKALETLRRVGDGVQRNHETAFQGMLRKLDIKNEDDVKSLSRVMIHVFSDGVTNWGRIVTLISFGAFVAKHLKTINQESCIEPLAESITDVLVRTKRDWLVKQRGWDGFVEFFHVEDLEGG

Turning to `COc1nn(C)cc1C(=O)N[S@@]1(=O)=NC(=O)c2ccc3c(c2)N(C[C@@H]2CC[C@H]2[C@H](O)/C=C/C[C@H](C)[C@H]1C)C[C@@]1(CCCc2cc(Cl)ccc21)CO3` [Example 353], the EC50 – broadly, the concentration at which the effect is half-maximal – in the test on SKBR3 cells (Homo sapiens, SK-BR-3, 72 h) was determined as 257 nM. In addition, the IC50 (commonly the concentration that inhibits the measured activity by half) in test [1] was 0.103 nM.
In the same order, the values of `CO[C@H]1/C=C/C[C@H](C)C[S@@](=O)(NC(=O)c2cc(C)sn2)=NC(=O)c2ccc3c(c2)N(C[C@@H]2CC[C@H]21)C[C@@]1(CCCc2cc(Cl)ccc21)CO3` [Example 444] are 172 nM and 0.101 nM.
The like results for `CO[C@H]1/C=C/C[C@H](C)C[S@@](=O)(NC(=O)N2CC(N(C)C)C2)=NC(=O)c2ccc3c(c2)N(C[C@@H]2CC[C@H]21)C[C@@]1(CCCc2cc(Cl)ccc21)CO3` [Example 333] were, in that order, 38.3 nM and 0.039 nM.
The like results for `CO[C@H]1/C=C/C[C@H](C)C[S@@](=O)(NC(=O)c2coc(C)c2)=NC(=O)c2ccc3c(c2)N(C[C@@H]2CC[C@H]21)C[C@@]1(CCCc2cc(Cl)ccc21)CO3` [Example 204] were, in that order, 136 nM and 0.048 nM.
`CO[C@H]1/C=C/C[C@H](C)[C@@H](C)[S@@](=O)(NC(=O)c2cc3n(c2)C[C@H](C)OC3)=NC(=O)c2ccc3c(c2)N(C[C@@H]2CC[C@H]21)C[C@@]1(CCCc2cc(Cl)ccc21)CO3` [Example 218]: in the test on SKBR3 cells (Homo sapiens, SK-BR-3, 72 h), the concentration giving a half-maximal response (EC50) worked out at 85.5 nM. The IC50 in test [1] turned out to be 0.345 nM.
On to `CO[C@H]1/C=C/C[C@H](C)[C@@H](C)[S@@](=O)(NC(=O)CCc2ccnn2C)=NC(=O)c2ccc3c(c2)N(C[C@@H]2CC[C@H]21)C[C@@]1(CCCc2cc(Cl)ccc21)CO3` [Example 49], for which, in the test with SKBR3 cells (72 hours), the concentration for a half-maximal effect (EC50) is 207 nM. The IC50 in test [1] came out at 0.1 nM.
On to `CCNC(=O)N[S@@]1(=O)=NC(=O)c2ccc3c(c2)N(C[C@@H]2CC[C@H]2[C@@H](OC)/C=C/C[C@H](C)C1)C[C@@]1(CCCc2cc(Cl)ccc21)CO3` [Example 421], for which the EC50 with SKBR3 cells (Homo sapiens, SK-BR-3, 72 h) was 152 nM. Also, the 50% inhibitory concentration (IC50) in test [1] amounted to 0.081 nM.
The like results for `COC1CN(c2nn(C)cc2C(=O)N[S@@]2(=O)=NC(=O)c3ccc4c(c3)N(C[C@@H]3CC[C@H]3[C@@H](OC)/C=C/C[C@H](C)C2)C[C@@]2(CCCc3cc(Cl)ccc32)CO4)C1` [Example 379] were, in that order, 1660 nM and 0.834 nM.
In the same order, the values of `COc1nn(C)cc1C(=O)N[S@@]1(=O)=NC(=O)c2ccc3c(c2)N(C[C@@H]2CC[C@H]2[C@@H](OC)/C=C/[C@H](OC)CC1)C[C@@]1(CCCc2cc(Cl)ccc21)CO3` [Example 392] are 142 nM and 0.07 nM.
For the compound `CO[C@H]1/C=C/C[C@H](C)C[S@@](=O)(NC(=O)N[C@H]2C[C@@]2(C)OC)=NC(=O)c2ccc3c(c2)N(C[C@@H]2CC[C@H]21)C[C@@]1(CCCc2cc(Cl)ccc21)CO3` (single isomer, unassigned) [Example 313], in the test with SKBR3 cells (Homo sapiens, SK-BR-3, 72 h), the EC50 was 94.5 nM. The IC50 in test [1] stood at 0.064 nM.
The like results for `CO[C@H]1/C=C/C[C@H](C)C[S@@](=O)(NC(=O)N[C@H]2C[C@H](OC(=O)N(C)C)C2)=NC(=O)c2ccc3c(c2)N(C[C@@H]2CC[C@H]21)C[C@@]1(CCCc2cc(Cl)ccc21)CO3` [Example 360] were, in that order, 139 nM and 0.052 nM.
The like results for `CO[C@H]1/C=C/CCC[S@@](=O)(NC(=O)NC(C)(C)C(F)(F)F)=NC(=O)c2ccc3c(c2)N(C[C@@H]2CC[C@H]21)C[C@@]1(CCCc2cc(Cl)ccc21)CO3` [Example 34] were, in that order, 3350 nM and 2 nM.
In the same order, the values of `CO[C@H]1/C=C/C[C@H](C)C[S@@](=O)(NC(=O)c2cnoc2)=NC(=O)c2ccc3c(c2)N(C[C@@H]2CC[C@H]21)C[C@@]1(CCCc2cc(Cl)ccc21)CO3` [Example 409] are 297 nM and 0.147 nM.
With `CO[C@H]1/C=C/CCC[S@@](=O)(NC(=O)CCc2ccncc2)=NC(=O)c2ccc3c(c2)N(C[C@@H]2CC[C@H]21)C[C@@]1(CCCc2cc(Cl)ccc21)CO3` [Example 41], the half-maximal effective concentration (EC50) with SKBR3 cells (Homo sapiens, SK-BR-3, 72 h) worked out at 256 nM. For the same compound, the IC50 in test [1] is 0.1 nM.
The like results for `CO[C@H]1/C=C/C[C@H](C)C[S@@](=O)(NC(=O)c2cn(C)nc2N(C)C)=NC(=O)c2ccc3c(c2)N(C[C@@H]2CC[C@H]21)C[C@@]1(CCCc2cc(Cl)ccc21)CO3` [Example 213] were, in that order, 57 nM and 0.076 nM.
Consider `CO[C@H]1/C=C/CCC[S@@](=O)(NC(=O)C#CC(C)(C)C)=NC(=O)c2ccc3c(c2)N(C[C@@H]2CC[C@H]21)C[C@@]1(CCCc2cc(Cl)ccc21)CO3` [Example 36], for which the EC50 in the test on SKBR3 cells (Homo sapiens, SK-BR-3, 72 h) is 10000 nM. The IC50 in test [1] was 8.1 nM.
Take `CO[C@H]1/C=C/C[C@H](C)C[S@@](=O)(NC(=O)c2cn(C)nc2C2CC2)=NC(=O)c2ccc3c(c2)N(C[C@@H]2CC[C@H]21)C[C@@]1(CCCc2cc(Cl)ccc21)CO3` [Example 164]: the 50% effective concentration (EC50) with SKBR3 cells (Homo sapiens, SK-BR-3, 72 h) stood at 106 nM. Further, the half-inhibitory concentration (IC50) in test [1] was found to be 0.141 nM.
Take `COC[C@H]1C[C@@H]1NC(=O)N[S@@]1(=O)=NC(=O)c2ccc3c(c2)N(C[C@@H]2CC[C@H]2[C@@H](OC)/C=C/C[C@H](C)C1)C[C@@]1(CCCc2cc(Cl)ccc21)CO3` [Example 303]: the half-maximal effective concentration (EC50) in the test with SKBR3 cells (Homo sapiens, SK-BR-3, 72 h) was 22.8 nM. In test [1], the concentration for half-maximal inhibition (IC50) came out at 0.045 nM.
Regarding `COC[C@H]1C[C@H]1NC(=O)N[S@@]1(=O)=NC(=O)c2ccc3c(c2)N(C[C@@H]2CC[C@H]2[C@@H](OC)/C=C/C[C@H](C)C1)C[C@@]1(CCCc2cc(Cl)ccc21)CO3` [Example 316], the concentration for a half-maximal effect (EC50) in the test with SKBR3 cells (72 hours) came to 116 nM. The IC50 in test [1] was 0.056 nM.
As to `CO[C@H]1/C=C/CCC[S@@](=O)(NC(=O)NCc2ccncc2)=NC(=O)c2ccc3c(c2)N(C[C@@H]2CC[C@H]21)C[C@@]1(CCCc2cc(Cl)ccc21)CO3` [Example 79], the concentration giving a half-maximal response (EC50) with SKBR3 cells (Homo sapiens, SK-BR-3, 72 h) was 3030 nM. In addition, in test [1], the IC50 was 0.4 nM.
`COc1nn(C)cc1C(=O)N[S@@]1(=O)=NC(=O)c2ccc3c(c2)N(C[C@@H]2CC[C@H]2[C@@H](OC)/C=C/[C@H](OC(=O)N(C)C)[C@H](C)C1C(=O)N(C)C)C[C@@]1(CCCc2cc(Cl)ccc21)CO3` (stereo partly drawn) [Example 395]: the 50% effective concentration (EC50) in the test with SKBR3 cells (72 hours) was 6180 nM. Besides, in test [1], the IC50 came out at 5.27 nM.
On to `CO[C@H]1/C=C/C[C@H](C)C[S@@](=O)(NC(=O)c2cc3c(s2)CCOC3)=NC(=O)c2ccc3c(c2)N(C[C@@H]2CC[C@H]21)C[C@@]1(CCCc2cc(Cl)ccc21)CO3` [Example 429], for which, in the test on SKBR3 cells (Homo sapiens, SK-BR-3, 72 h), the EC50 came out at 261 nM. In test [1], the IC50 turned out to be 0.129 nM.
For the compound `CO[C@H]1/C=C/C[C@H](C)C[S@@](=O)(NC(=O)C2CC(C)(O)C2)=NC(=O)c2ccc3c(c2)N(C[C@@H]2CC[C@H]21)C[C@@]1(CCCc2cc(Cl)ccc21)CO3` (stereo partly drawn) [Example 140], the concentration giving a half-maximal response (EC50) in the test with SKBR3 cells (Homo sapiens, SK-BR-3, 72 h) stood at 38.6 nM. Further, the IC50 in test [1] turned out to be 0.043 nM.
The like results for `COCC1(OC)CN(C(=O)N[S@@]2(=O)=NC(=O)c3ccc4c(c3)N(C[C@@H]3CC[C@H]3[C@@H](OC)/C=C/C[C@H](C)C2)C[C@@]2(CCCc3cc(Cl)ccc32)CO4)C1` [Example 274] were, in that order, 82.6 nM and 0.043 nM.
In the same order, the values of `CO[C@H]1/C=C/C[C@H](C)C[S@@](=O)(NC(=O)N2CC(OC(=O)N(C)C)C2)=NC(=O)c2ccc3c(c2)N(C[C@@H]2CC[C@H]21)C[C@@]1(CCCc2cc(Cl)ccc21)CO3` [Example 292] are 45.1 nM and 0.02 nM.
In the same order, the values of `CO[C@H]1/C=C/C[C@H](C)C[S@@](=O)(NC(=O)c2cnn(CC3CC3)c2)=NC(=O)c2ccc3c(c2)N(C[C@@H]2CC[C@H]21)C[C@@]1(CCCc2cc(Cl)ccc21)CO3` [Example 419] are 135 nM and 0.186 nM.
Consider `CO[C@H]1/C=C/CCC[S@@](=O)(NC(=O)NCc2cnccn2)=NC(=O)c2ccc3c(c2)N(C[C@@H]2CC[C@H]21)C[C@@]1(CCCc2cc(Cl)ccc21)CO3` [Example 80], for which, in the test with SKBR3 cells (Homo sapiens, SK-BR-3, 72 h), the EC50 amounted to 1060 nM. Moreover, the concentration for half-maximal inhibition (IC50) in test [1] came out at 0.3 nM.
The like results for `CO[C@H]1/C=C/C[C@H](C)C[S@@](=O)(NC(=O)N[C@H]2C[C@H]2CO)=NC(=O)c2ccc3c(c2)N(C[C@@H]2CC[C@H]21)C[C@@]1(CCCc2cc(Cl)ccc21)CO3` (single isomer, unassigned) [Example 365] were, in that order, 146 nM and 0.04 nM.
As for `CCn1ccc(CCC(=O)N[S@@]2(=O)=NC(=O)c3ccc4c(c3)N(C[C@@H]3CC[C@H]3[C@@H](OC)/C=C/C[C@H](C)[C@H]2C)C[C@@]2(CCCc3cc(Cl)ccc32)CO4)n1` [Example 408], the 50% effective concentration (EC50) in the test on SKBR3 cells (Homo sapiens, SK-BR-3, 72 h) is 241 nM. In addition, in test [1], the concentration for half-maximal inhibition (IC50) was 0.054 nM.
Consider `CO[C@H]1/C=C/C[C@H](C)C[S@@](=O)(NC(=O)N[C@H]2C[C@@H]2OC)=NC(=O)c2ccc3c(c2)N(C[C@@H]2CC[C@H]21)C[C@@]1(CCCc2cc(Cl)ccc21)CO3` [Example 160], for which the EC50 with SKBR3 cells (Homo sapiens, SK-BR-3, 72 h) is 35 nM. The IC50 in test [1] was 0.031 nM.
The like results for `CO[C@H]1/C=C/C[C@H](C)C[S@@](=O)(NC(=O)N[C@@H]2[C@@H]3COC[C@@H]32)=NC(=O)c2ccc3c(c2)N(C[C@@H]2CC[C@H]21)C[C@@]1(CCCc2cc(Cl)ccc21)CO3` [Example 449] were, in that order, 147 nM and 0.131 nM.
In the same order, the values of `CO[C@H]1/C=C/C[C@H](C)C[S@@](=O)(NC(=O)NC2CC3(C2)CC(F)(F)C3)=NC(=O)c2ccc3c(c2)N(C[C@@H]2CC[C@H]21)C[C@@]1(CCCc2cc(Cl)ccc21)CO3` [Example 437] are 123 nM and 0.301 nM.
The like results for `CO[C@H]1/C=C/C[C@H](C)C[S@@](=O)(NC(=O)c2cn(C)nc2OCCN2CCOCC2)=NC(=O)c2ccc3c(c2)N(C[C@@H]2CC[C@H]21)C[C@@]1(CCCc2cc(Cl)ccc21)CO3` [Example 319] were, in that order, 19.9 nM and 0.038 nM.
